Reference: patent US20050064501A1, “Medicaments comprising inhibitors of the cell volume-regulated human kinase h-sgk” (PROF. DR. MED. F. LANG, priority 1999, published 2005)
Substitutions are numbered along the chain they refer to. Names and notes keep the numbering of the source. “Also recorded” adds a separate entry of the source.

Columns and labels:
[1] = test system: biglycan expression; test: Transcriptional regulation of biglycan (Northern blot); assay type: cell-based; details: FIG. 2; for effect of TGFβ1 on biglycan expression in the presence of the NKCC inhibitor: TGFβ1-stimulated
Protocol: (§1) Cells were cultivated in RPMI/5% CO2/10 mM glucose at 37° C., pH 7.4, supplemented with 10% (vol/vol) fetal calf serum (FCS). The cells were grown to 90% confluence and then homogenized in TRIZOL (GIBCO/BRL) (about 0.4×10^6 per sample). Total RNA was prepared in accordance with the manufacturer's instructions. Northern blots were fractionated by electrophoresis through 10 g/l agarose gels with 15 or 20 μg of total RNA with separate control in the presence of 2.4 mol/l formaldehyde. RNA was transferred by vacuum (Appligene Oncor Trans DNA Express Vacuum Blotter, Appligine, Heidelberg, Germany) to positively charged nylon membranes (Boehringer Mannheim, Germany) and crosslinked under ultraviolet light (UV Stratalinker 2400, Stratagene, Heidelberg, Germany). Hybridization was carried out over night with DIG-Easy-Hyb (Boehringer Mannheim) at a probe concentration of 25 μg/l at 50° C. The digoxigenin (DIG)-labeled probes were produced by PCR as described in detail earlier (Waldegger et al. (1997) PNAS 94: 4440-4445). For the autoradiography, the filters were exposed to an X-ray film (Kodak) for an average of 5 min.

[2] = biological target: T1, h-sgk (Homo sapiens, UniProt O00141); test: Two-electrode voltage clamp of ENaC current in oocytes coexpressing h-sgk; assay type: cell-based; details: for activation of ENaC (Na+ channel current) by h-sgk: oocytes coexpressing ENaC and h-sgk, treated with kinase inhibitor, FIG. 4
T1 construct: expressed in transfected cells; host or cells: Xenopus laevis oocytes (cRNA injection)
T1 sequence (O00141 1-431): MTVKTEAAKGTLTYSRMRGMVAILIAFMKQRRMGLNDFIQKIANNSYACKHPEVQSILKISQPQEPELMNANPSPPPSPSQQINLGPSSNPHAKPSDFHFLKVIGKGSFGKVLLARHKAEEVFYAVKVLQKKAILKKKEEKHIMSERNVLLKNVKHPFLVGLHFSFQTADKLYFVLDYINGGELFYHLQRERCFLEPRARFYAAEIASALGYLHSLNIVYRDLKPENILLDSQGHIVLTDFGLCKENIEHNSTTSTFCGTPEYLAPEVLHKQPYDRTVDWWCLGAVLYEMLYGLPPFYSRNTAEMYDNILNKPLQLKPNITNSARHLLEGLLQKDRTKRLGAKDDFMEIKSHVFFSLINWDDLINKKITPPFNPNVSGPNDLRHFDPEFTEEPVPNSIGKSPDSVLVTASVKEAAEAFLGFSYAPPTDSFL
Protocol: (§2) Dissection of Xenopus laevis, and the obtaining and treatment of the oocytes has been described in detail earlier (Busch et al. 1992). The oocytes were each injected with 1 ng of cRNA of NKCC, ENaC or MDEG with or without simultaneous injection of h-sgk. It was possible to carry out two-electrode voltage and current clamp experiments 2-8 days after the injection. Na^+ influx which could be inhibited by furosemide through the NKCC was measured by the ^22Na^+ uptake, which was determined with a scintillation counter, into the oocytes. Na^+ currents (ENaC) were filtered at 10 Hz and recorded with a pen recorder. The experiments were normally carried out on the second day after cRNA injection. The bath solution contained: 96 mM NaCl, 2 mM KCl, 1.8 mM CaCl2, 1 mM MgCl2 and 5 mM HEPES at pH 7.5 and the holding potential was −50 mV. The pH was adjusted by titration with HCl or NaOH in all the experiments. The flow rate of the bath liquid was set at 20 ml/min, which ensured a complete change of solution in the measurement chamber within 10-15 s. All the data are stated in the form of arithmetic means ±SEM.

[3] = test system: NKCC; test: 22Na+ tracer flux (furosemide-inhibitable Na+ uptake) in oocytes expressing NKCC with or without h-sgk; assay type: cell-based, Xenopus laevis; details: 22Na+ uptake
Protocol: as §2

[4] = test system: h-sgk expression; test: Transcriptional regulation of h-sgk (Northern blot); assay type: cell-based; details: FIG. 1; TGFβ1 effect shown after 0.5 to 6 h
Protocol: as §1

Molecule: CCCCNc1cc(C(=O)O)cc(S(N)(=O)=O)c1Oc1ccccc1 [bumetanide]
- effect of TGFβ1 on biglycan expression in the presence of the NKCC inhibitor [1]: almost completely suppressed

Molecule: COc1ccc2c(c[n+](C)c3c4cc5c(cc4ccc23)OCO5)c1OC [chelerythrine]
- activation of ENaC (Na+ channel current) by h-sgk [2]: suppresses; also recorded: completely to suppress

Molecule: NS(=O)(=O)c1cc(C(=O)O)c(NCc2ccco2)cc1Cl [furosemide]
- effect of TGFβ1 on biglycan expression in the presence of the NKCC inhibitor [1]: completely suppressed
- increased expression of the matrix proteins in fibroblasts ([1]; fibroblasts): can be suppressed
- Na+ influx in NKCC-injected oocytes ([3]; NKCC alone, without h-sgk, FIG. 3 top): not inhibited
- increase in Na+ influx on coexpression of h-sgk with NKCC ([3]; oocytes coexpressing h-sgk and NKCC, FIG. 3 below): completely suppressed

Molecule: TGFβ1: tumor growth factor β1
- expression of h-sgk [4]: stimulated
- expression of biglycan [1]: stimulated

Molecule: C[C@H](CCC(=O)O)C[C@H](C)C[C@H](C)C(=O)/C=C(\O)[C@H](C)C[C@H](C)C/C=C/[C@@H](C)[C@@H](O)[C@@H](C)[C@@H](O)C[C@@H]1CC[C@@](C)([C@H]2CC[C@@](C)([C@@H](C)O)O2)O1 [ionomycin]
- expression of h-sgk [4]: likewise stimulate

Molecule: CCCCCCCCCC(=O)O[C@@H]1[C@@H](C)[C@@]2(O)[C@@H](C=C(CO)C[C@@]3(O)C(=O)C(C)=C[C@@H]23)[C@@H]2C(C)(C)[C@]12OC(=O)CCCCCCCCC [PDD, 4-alpha-phorbol 12,13-didecanoate]
- expression of h-sgk [4]: likewise stimulate

Molecule: CN[C@@H]1C[C@H]2O[C@@](C)([C@@H]1OC)n1c3ccccc3c3c4c(c5c6ccccc6n2c5c31)C(=O)NC4 [staurosporine]
- activation of ENaC (Na+ channel current) by h-sgk [2]: suppresses; also recorded: completely to suppress

B1: trans-dominant inhibitory kinase: h-sgk modified by mutation: lysine in position 127 replaced by arginine (K127R); suppresses the catalytic function (protein, UniProt O00141 1-431, looked up, variant K127R)
Serine/threonine-protein …: T1 sequence (O00141 1-431) with K127R
- stimulating effect of h-sgk coexpression on the ENaC-mediated Na+ current ([2]; coexpression of the trans-dominant inhibitory kinase in oocytes, FIG. 5): can be suppressed
